In brackets after ≈: the same amount, converted by molar mass.
What was measured:
[1] = test system: Lactobacillus strains (L. rhamnosus BCRC 10940, L. paracasei BCRC 14001, L. delbrueckii BCRC 14008); assay: antimicrobial activity (MIC), microtitre plate-based method; type: cell-based; details: 10^5 cfu/ml, 37° C., 24 h, MRS medium, triplicate; read-out: minimal inhibitory concentration (MIC)
Protocol: (§1) Three Lactobacillus strains, L. rhamnosus BCRC 10940, L. paracasei BCRC 14001, L. delbrueckii BCRC 14008, were purchased from the FIRDI, which were cultured in MRS w/o agar medium (Difco) and stored at 4° C. To activate the bacteria, the cells were inoculated in MRS medium at a concentration of 5% (v/v) and cultured at 37° C. for 24 hours, and then 10^7 cells/ml of each of the three Lactobacillus strains was inoculated in 5 ml of MRS medium with shaking overnight.
(§2) Antimicrobial activity of antibiotics against the three Lactobacillus strains was measured by a microtitre plate-based method. […] 10 μl of activated bacterial cultures was added to each well to achieve a concentration of 10^5 cfu/ml per well, and the plates were incubated at 37° C. for 24 h. The growth of the bacteria was measured by absorbance at 600 nm and the survival percentages were determined. Further, the minimal inhibitory concentration (MIC) was determined as the lowest concentration of the antibiotics allowing no visible growth of the bacteria. Data are the averages of a triplicate experiment.

L. rhamnosus [2] = assay: microtitre plate-based growth assay, cell number (Table 3); parameters: species or system L. rhamnosus BCRC 10940
Protocol: as §1, §2
(§3) On the other hand, the fermented soy extract prepared of the invention as in Example 1 was analyzed for its prebiotic activity to support the growth of beneficial bacteria using the microtitre plate-based method as described above. The fermented soy extract of the invention was added at a concentration of 5% into the wells and the plates were incubated at 37° C. for 48 h. The cell number was counted.

L. paracasei [3] = assay: as above; parameters: species or system L. paracasei BCRC 14001
Protocol: as §1, §2, §3

L. delbrueckii [4] = assay: as above; parameters: species or system L. delbrueckii BCRC 14008
Protocol: as §1, §2, §3

L. delbrueckii [5] = assay: simultaneous treatment of antibiotics and fermented soy extract, survival counting; type: cell-based; details: FSE 5% where added, 48 h
Protocol: as §1
(§4) The plates were incubated at 37° C. for 48 h.

L. paracasei [6] = assay: as above; type: cell-based; details: FSE 5% where added, 48 h
Protocol: as §1, §4

L. rhamnosus [7] = assay: as above; type: cell-based; details: FSE 5% where added, 48 h
Protocol: as §1, §4

Row | SMILES | MIC [1] [µg/mL] | cell number L. rhamnosus (L. rhamnosus [2]; antibiotic 2 μg) | cell number L. paracasei (L. paracasei [3]; antibiotic 2 μg) | cell number L. delbrueckii (L. delbrueckii [4]; antibiotic 2 μg) | survival counting L. delbrueckii (L. delbrueckii [5]; antibiotic 2 μg/ml) | survival counting L. delbrueckii (L. delbrueckii [5]; antibiotic 5 μg/ml) | survival counting L. paracasei (L. paracasei [6]; antibiotic 2 μg/ml) | survival counting L. paracasei (L. paracasei [6]; antibiotic 5 μg/ml) | survival counting L. rhamnosus (L. rhamnosus [7]; antibiotic 2 μg/ml) | survival counting L. rhamnosus (L. rhamnosus [7]; antibiotic 5 μg/ml) | cell number L. rhamnosus (L. rhamnosus [2]; antibiotic 1 μg) | cell number L. paracasei (L. paracasei [3]; antibiotic 1 μg) | cell number L. delbrueckii (L. delbrueckii [4]; antibiotic 1 μg)
1 | CC1(C)S[C@@H]2[C@H](NC(=O)[C@H](N)c3ccc(O)cc3)C(=O)N2[C@H]1C(=O)O [AMO, amoxicillin] | 3.6 (≈ 9.85 µM) | 3.40 × 10^3 | 2.00 × 10^4 | 5.00 × 10^4 | 6670 ± 610 | 1170 ± 76 | 3000 ± 500 | 4300 ± 445 | 500 ± 50 | 370 ± 10 | – | – | –
2 | CC1(C)S[C@@H]2[C@H](NC(=O)[C@H](N)c3ccccc3)C(=O)N2[C@H]1C(=O)O [AMP, ampicillin] | 3.6 (≈ 10.3 µM) | 6.30 × 10^4 | 3.29 × 10^6 | 5.58 × 10^6 | 4330 ± 260 | – | 3670 ± 350 | 4700 ± 409 | 967 ± 76 | 230 ± 15 | – | – | –
3 | CC[C@H]1OC(=O)[C@H](C)[C@@H](O[C@H]2C[C@@](C)(OC)[C@@H](O)[C@H](C)O2)[C@H](C)[C@@H](O[C@@H]2O[C@H](C)C[C@H](N(C)C)[C@H]2O)[C@](C)(OC)C[C@@H](C)C(=O)[C@H](C)[C@@H](O)[C@]1(C)O [CAM, clarithromycin] | 1 (≈ 1.34 µM) | – | – | – | – | – | – | – | – | – | 5.10 × 10^4 | 3.27 × 10^5 | 3.45 × 10^5
4 | CC[C@H]1OC(=O)[C@H](C)[C@@H](O[C@H]2C[C@@](C)(OC)[C@@H](O)[C@H](C)O2)[C@H](C)[C@@H](O[C@@H]2O[C@H](C)C[C@H](N(C)C)[C@H]2O)[C@](C)(O)C[C@@H](C)C(=O)[C@H](C)[C@@H](O)[C@]1(C)O [Eryc, erythromycin] | 1 (≈ 1.36 µM) | 5.07 × 10^4 | 3.18 × 10^5 | 3.16 × 10^5 | – | – | – | – | – | – | – | – | –
